Test results reported in patent publication US8129514B2, “Nucleotide sequences for regulating gene expression in plant trichomes and constructs and methods utilizing same” (Evogene Ltd., priority 2003, dated 2012).
Marks after values point to notes of the source that are not given here.

How the values were obtained:
PPO [1] = details: positive control at 200 mM; PPO harvested from trichome cells; cited from earlier work
PPO [2] = assay: Decrease of PPO activity (browning of supernatant) by antioxidants in ground tomato leaves; assay type: biochemical, Tomato (L. esculentum); details: for Efficient concentration (minimal concentration that enables a decrease of 95% of PPO activity): w/v, 10 mM Tris-HCl pH=8, about 2 hrs at 4° C.
Experimental: Three compounds were tested: citric acid, ascorbic acid and sodium bisulfite. Different concentrations of chemicals were used to identify the chemical with the highest antioxidant activity. Tomato (L. esculentum) young leaves (about 100 mg) were grinded at 4° C. in 200 μl of 10 mM Tris-HCl pH=8 buffer containing appropriate concentration of antioxidant (0.01-2.0% w/v), incubated for about 2 hrs at 4° C. and centrifuged at 14,000 rpm for 3 min in order to separate leaves-debris and liquid fraction. Decreasing of PPO activity was inspected by eliminating the production of brown color of the supernatant as a result of the oxidation of polyphenols. Table 8 below summarizes the minimal concentration that enables a decrease of 95% of PPO activity.
A buffer without any antioxidant was used as a negative control.

tomato trichome = assay: GUS staining of leaves of T1 tomato plants carrying promoter-GUS constructs; assay type: in vivo, tomato (Lycopersicon esculentum cv. Micro-Tom)
Experimental: Tomato transformation—Tomato transformation was carried out according to Fillati et al. (19). Briefly, Lycopersicon esculentum cv. Micro-Tom cotyledons were used for Agrobacterium based plant transformation. The Micro-Tom seeds were surface sterilized for 10 min in a 3% sodium hypochlorite solution. The seeds were washed with DDW three times and soaked for three hours in fresh DDW, then plated into 0.5 L container with Nitsch medium, containing MS salts, 3% sucrose, Nitsch vitamins and 0.8% plant agar (Duchefa, Netherland). The PH was adjusted to 5.8 prior to autoclaving for 20 min at 121° C. 50 seeds where plated on 0.5 L sterilized container containing the germination medium and left at 25° C. in culture room, 16/8 hrs light/dark cycles, under light intensity of (150 μEm^−2S). Seedlings where grown for 8 days.
A. GUS staining—Gus staining of tomato and tobacco plants was effected as previously described (15). Briefly: Leaves were fixed in 90% ice cold acetone for 15-20 minutes (on ice), followed by removal of acetone and a double tissue rinsing with the Working Solution [25 mM Sodium Phosphate (Sigma, USA) buffer pH=7, Ferricyanide (Sigma, USA) 1.25 mM, Ferrocyanide (Sigma, USA) 1.25 mM, Triton X-100 (Sigma, USA) 0.25%, EDTA (BioLab) 0.25 mM] for 15-20 minutes. Rinse solution was removed, replaced with Staining solution [Working solution with 5-bromo-4-chloro-3-indolyl-β-D-glucuronic acid (X-GlcA, Duchefa) solubilized in N,N-Dimethylformamide (BioLab) 1.5 mg/ml and Dithiothreitol (DTT, Bio Lab) 100 mM] and incubated in the dark (tubes wrapped with aluminum foil) over night at 37° C. Distaining was effected by sinking the plant tissue in 70% ethanol and heating at 50° C. for ˜2 hours. The distaining step was repeated until the plant tissue became transparent except the blue stained regions. Distained plants were stored in 70% ethanol (BioLab) at room temperature.
GUS staining was performed on leaves of T1 tomato and tobacco plants transfected with a binary vector including putative trichome specific promoters upstream of a GUS gene. […]

O[C@H](CS)[C@H](O)CS (racemic) [DDT, Dithiothreitol]
PPO activity (PPO [1]): eliminate PPO activity

O=S([O-])O.[Na+] [Sodium bisulfite]
PPO activity as indicated by medium browning (PPO [2]; increasing concentrations, FIG. 3): decreased PPO activity | Efficient concentration (minimal concentration that enables a decrease of 95% of PPO activity) (PPO [2]): 0.05%

O=C1O[C@H]([C@@H](O)CO)C(O)=C1O [Ascorbic acid]
Efficient concentration (minimal concentration that enables a decrease of 95% of PPO activity) (PPO [2]): 1.0%*

O=C(O)CC(O)(CC(=O)O)C(=O)O [Citric acid]
Efficient concentration (minimal concentration that enables a decrease of 95% of PPO activity) (PPO [2]): 1.0%

B1: TR27-P: previously described cotton promoter, G. barbadense var. Pima 15, SEQ ID NO: 39 (nucleic acid)
DNA: AAGCTTTAAGTTTAAATCCTATTGTAGTGTTATTTATAAAAAAAATGAGAAAAGATAAAAATACCTTTATATTAATATTTGTTATATTATAAAATAAGGATATTTTTAACAAATTTTCAATTGAATAGATGTTTGGGTGAATCCTAATACCAATTAAAGTATATATACAGCAAACAATTATAAATCAAATTACTTTTAATAAAATGCTATCATTCAATTCAATGACAATAAATGCATTTATAAATACATCAAATGTAAATCTCATGTTTATAAGAAAACACGTAGAAAAAAAGTTAAACCAATATTTGAGTCCTAGCTGTGGAGGCATGATTGAGTGAAATCAAATGGACGCTGGTTTTAATTCTATTGAAAGAAACCAATAATCACGTAGGTTGGCAGTTGAACATAATTGAATGGTCTCAACTTTTAATGTGGTGTTAATGTTTGGATCGGATAATCTCAACTTACCTAATAGCTAGGAAAGTAAAATTCAAACATCACCCGCTACTACTTTTGGCTATAAAAACCCTCCTACCCTCAAGCCCTAACCACGACAATCACCAATAGTACTACTACTCCAAGCAAGTATTTTCCTTACACGTTTGTTTTTCTTGTGATAATGGATCC
modifications: Gossypium barbadense
Avg grade (tomato trichome; GUS staining, tomato T1 generation, signal peptide: No): 0.4 | GUS expression pattern (tomato trichome; GUS under the regulation of the promoter, FIGS. 1d-h): expressed in a trichome-gland specific manner | effectiveness in facilitating expression of heterologous genes in the tomato trichome (tomato trichome; conclusion from Table 6): most effective
